Laboratory results from patent publication US20240287138A1, “CYCLIC PEPTIDES FOR INHIBITING TNF RECEPTOR 1 ACTIVITY” (Merck Sharp & Dohme LLC, priority 2023, published 2024).
Numbered stars: 1 amine (or outer) side, 2 acyl side, 3 side chain; on linkers, the order of the positions; unused ones are H or OH. Bridge positions count the residues as written; N and C are the ends. Square brackets hold non-standard residues; d marks the D form. Peptide text beside a SMILES is read from it. Trp(βS-Me,7-OMe) = COc1cccc2c([C@H](C)[C@H](N)C(=O)O)c[nH]c12; Phe(4-SO2NH2) = N[C@@H](Cc1ccc(S(N)(=O)=O)cc1)C(=O)O; X69 = O=C(O)C12CC(C[C@H](N[*:1])C(=O)[*:2])(C1)C2; Trp(7-CN) = N#Cc1cccc2c(C[C@H](N)C(=O)O)c[nH]c12; Trp(7-Cl) = N[C@@H](Cc1c[nH]c2c(Cl)cccc12)C(=O)O; Phe(4-CONH2) = NC(=O)c1ccc(C[C@H](N)C(=O)O)cc1; Phe(4-COOH) = N[C@@H](Cc1ccc(C(=O)O)cc1)C(=O)O; Trp(7-aza) = N[C@@H](Cc1c[nH]c2ncccc12)C(=O)O; Pip(5R-OH) = O=C(O)[C@@H]1CC[C@@H](O)CN1; X1 = O=C([C@@H]1CC[C@H](N[*:1])C1)[*:2]; Pro(4R-NH2) = N[C@H]1CN[C@H](C(=O)O)C1; X65 = O=C(CN(CC1(O)CC1)[*:1])[*:2]; 4Pal = N[C@@H](Cc1ccncc1)C(=O)O; NMeE = CN[C@@H](CCC(=O)O)C(=O)O; dHyp = O=C(O)[C@H]1C[C@H](O)CN1; dNMeE = CN[C@H](CCC(=O)O)C(=O)O; Pip = O=C(O)[C@@H]1CCCCN1; αMeS = C[C@](N)(CO)C(=O)O; Nle = CCCC[C@H](N)C(=O)O; Sar = CNCC(=O)O

target: T1, human soluble TNFR1 (sTNFR1) (Homo sapiens, UniProt P19438); experiment: Human sTNFR1-peptide displacement assay (LanthaScreen Eu TR-FRET binding assay); conditions: not given
T1 construct: made in house; host or cells: Sf21 (baculovirus)
T1 sequence (P19438 with tags, fused parts or gaps): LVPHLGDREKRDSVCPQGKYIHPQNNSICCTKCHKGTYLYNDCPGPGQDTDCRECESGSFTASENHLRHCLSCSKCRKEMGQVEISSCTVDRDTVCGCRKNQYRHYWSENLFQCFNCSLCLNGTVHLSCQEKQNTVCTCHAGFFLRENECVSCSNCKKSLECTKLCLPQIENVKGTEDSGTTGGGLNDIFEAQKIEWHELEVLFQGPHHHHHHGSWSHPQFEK
Experimental: A. Procedure for Human sTNFR1-Peptide Displacement Assay
The affinity was determined using LanthaScreen Eu-based time-resolved fluorescence resonance energy transfer (TR-FRET)-based binding assay.
A TR-FRET assay measuring the displacement of biotinylated peptide SEQ ID NO. 1 from human soluble TNFR1 (sTNFR1) in a pre-formed complex by a macrocyclic peptide yields the affinity (Kd^app) of the cyclic peptide for sTNFR1. The reagents for the assay include: the C′-terminally 6His-tagged sTNFR1 (residues 1-211) protein purified from a Sf21 baculovirus expression system, the biotin-tagged B0372 peptide described in section “Preparation of Final Compounds”, part E, the LanthaScreen™ anti-His Tag Europium donor (Life Technologies Corporation (San Diego, CA), cat. #PV5597), and a streptavidin-conjugate Alexa Fluor™ 647 acceptor (Invitrogen (Waltham, MA), cat. #S32357). Time-resolved TR-FRET is achieved when sTNFR1 is bound to biotinylated peptide SEQ ID NO. 1 through coupling of the donor and acceptor FRET pair.
100 nM biotinylated peptide SEQ ID NO. […] 100 nM biotinylated peptide SEQ ID NO. 1 was chosen as it reflects the ˜Kd for this complex. After 30 min at ambient temperature, each test peptide (2 mM stock in DMSO) is titrated in a 20 point, ˜3-fold discrete dose-response using an acoustic-dispense liquid handler. Specifically, 80 nL of peptide/DMSO is transferred into a ProxiPlate-384 Plus 384-well assay plate (PerkinElmer, cat. #6008289). To this plate, 8 μL of the previously formed sTNFR 1-biotinylated peptide SEQ ID NO. 1 complex is added and allowed to reach binding equilibrium with the test peptide at ambient temperature for 90 min.
The TR-FRET signal is measured with the following EnVision® settings: excitation laser at 337 nm; emission1=615 nm, emission2=665 nm, LANCE/DELFIA dichroic mirror, delay time=[…]. The signal of each well is determined as the ratio of the emission at 665 nm to that at 615 nm. Percent displacement is determined by normalization to control wells containing DMSO (0%) or a saturating concentration of a displaceable peptide (100%). The %-effect as a function of peptide concentration is fit to a five-parameter logistic fit based on the Morrison equation to account for tight binding kinetics.

First: CCCC[C@@H]1NC(=O)CSC[C@@H](C(N)=O)NC(=O)[C@H]([C@@H](C)c2c[nH]c3c(OC)cccc23)NC(=O)CN(C)C(=O)[C@H](Cc2ccc(O)cc2)NC(=O)[C@H](Cc2ccc(C(=O)O)cc2)NC(=O)[C@](C)(CO)NC(=O)[C@H](Cc2c[nH]c3c(Cl)cccc23)NC(=O)[C@H](Cc2ccncc2)NC(=O)[C@H](CC(N)=O)NC(=O)CN(CC2(O)CC2)C(=O)[C@H](Cc2c[nH]c3ccccc23)NC(=O)[C@@H]2CCCCN2C(=O)[C@H](Cc2ccncc2)NC1=O [SEQ ID NO. 13] ({CH2CO}-[Nle][4Pal][Pip]W[X65]N[4Pal][Trp(7-Cl)][αMeS][Phe(4-COOH)]Y[Sar][Trp(βS-Me,7-OMe)]C-NH2; thioether N-14)
Second: CCCC[C@@H]1NC(=O)[C@@H]2CC[C@@H](C2)NC(=O)[C@H]([C@@H](C)c2c[nH]c3c(OC)cccc23)NC(=O)CN(C)C(=O)[C@H](Cc2ccc(C(N)=O)cc2)NC(=O)[C@H](Cc2ccc(C(N)=O)cc2)NC(=O)[C@](C)(CO)NC(=O)[C@H](Cc2c[nH]c3c(C#N)cccc23)NC(=O)[C@H](CC23CC(C(=O)O)(C2)C3)NC(=O)[C@H](CC(N)=O)NC(=O)[C@H]2C[C@H](O)CN2C(=O)[C@H](Cc2c[nH]c3ncccc23)NC(=O)[C@@H]2CC[C@@H](O)CN2C(=O)[C@H](Cc2ccncc2)NC1=O [SEQ ID NO. 26] (cyclo([4Pal][Pip(5R-OH)][Trp(7-aza)][dHyp]N[X69][Trp(7-CN)][αMeS][Phe(4-CONH2)][Phe(4-CONH2)][Sar][Trp(βS-Me,7-OMe)][X1][Nle]))
The Kd of the first is 4.2-fold higher: 1 nM for the first, 0.24 nM for the second.

target: T2, TNFα-induced NF-κB signal transduction pathway (TNFR1 signaling) in THP-1 cells (Homo sapiens, UniProt P19438); experiment: THP-1 Lucia NF-κB reporter cell assay, inhibition of TNFα-induced NF-κB signaling; assay type: cell-based; conditions: THP-1 NF-κB Lucia reporter cells, 10 ng/mL TNFα, 16-18 h, secreted luciferase; read-out: THP-1 IC50
T2 sequence (P19438 30-455): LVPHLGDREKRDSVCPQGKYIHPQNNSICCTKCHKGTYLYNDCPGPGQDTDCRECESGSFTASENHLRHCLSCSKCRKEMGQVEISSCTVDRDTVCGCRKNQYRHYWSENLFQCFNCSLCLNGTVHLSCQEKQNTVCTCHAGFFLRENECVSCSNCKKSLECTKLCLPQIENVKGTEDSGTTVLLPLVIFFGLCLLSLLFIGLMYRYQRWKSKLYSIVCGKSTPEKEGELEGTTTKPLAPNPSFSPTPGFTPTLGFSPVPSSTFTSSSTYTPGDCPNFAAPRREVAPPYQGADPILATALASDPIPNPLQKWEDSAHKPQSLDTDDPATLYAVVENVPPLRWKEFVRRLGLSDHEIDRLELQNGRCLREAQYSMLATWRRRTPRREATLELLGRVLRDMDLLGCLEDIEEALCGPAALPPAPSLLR
Experimental: C. Procedure for THP-1 Lucia NF-κB cells
The inhibition of TNFα-induced NF-κB signal transduction pathways was evaluated in THP-1 cells. THP-1 cells harboring NF-κB-inducible Lucia™ reporter gene (InvivoGen, cat. #thp1-nfkb) designed for monitoring NF-κB signal transduction pathway was employed to assess the inhibitory effect macrocyclic peptides on TNFR1 signaling. The cells were cultured in media containing RPMI 1640, 2 mM L-glutamine, 25 mM HEPES, 10% heat-inactivated fetal bovine serum with appropriate selection antibiotics. Assays were performed in media that was devoid of selection antibiotics. For profiling, 125 nL of peptides in DMSO (10 mM) were dispensed into Falcon® 384-well Optilux white/clear flat bottom TC-treated microtest microplate (Corning, cat. #353963) using Echo® 555. […] A suspension of 1 million cells/mL was dispensed at 20 μL/well in a 384-well plate to a density of 20,000 cells/well and pre-incubated with peptides at 37° C. for 1 h. Subsequently, 5 μL of TNF containing media (recombinant human TNFα; R&D Systems USA, cat. #210-TA-005/CF) or TNF-free media (for controls) was added to the wells. The final concentration of TNFα in the assay in 10 ng/mL. After o.n. incubation at 37° C. (16-18 h), 5 μL of supernatant was aspirated and transferred to a 384-well microplate (PerkinElmer, cat. #6007680) for measurement of secreted luciferase activity with 25 μL of QUANTI-Luc™ luminescence assay reagent (InvivoGen, cat. #rep-qlc1) in each well. The luminescence was measured in EnVision® Multimode Plate Reader (PerkinElmer). Dose response curves were analyzed using a 4-parameter logistic model to calculate IC50 values, reported in Table 2, using TIBCO® Spotfire® software employing appropriate Minimum and Maximum controls.

Compared with CCCC[C@@H]1NC(=O)CSC[C@@H](C(N)=O)NC(=O)[C@H]([C@@H](C)c2c[nH]c3c(OC)cccc23)NC(=O)CN(C)C(=O)[C@H](Cc2ccc(O)cc2)NC(=O)[C@H](Cc2ccc(C(=O)O)cc2)NC(=O)[C@](C)(CO)NC(=O)[C@H](Cc2c[nH]c3c(Cl)cccc23)NC(=O)[C@H](Cc2ccncc2)NC(=O)[C@H](CC(N)=O)NC(=O)[C@H](CCC(=O)O)N(C)C(=O)[C@H](Cc2c[nH]c3ncccc23)NC(=O)[C@@H]2C[C@@H](N)CN2C(=O)[C@H](Cc2ccncc2)NC1=O [SEQ ID NO. 125] ({CH2CO}-[Nle][4Pal][Pro(4R-NH2)][Trp(7-aza)][NMeE]N[4Pal][Trp(7-Cl)][αMeS][Phe(4-COOH)]Y[Sar][Trp(βS-Me,7-OMe)]C-NH2; thioether N-14), CCCC[C@@H]1NC(=O)[C@@H]2CC[C@@H](C2)NC(=O)[C@H]([C@@H](C)c2c[nH]c3c(OC)cccc23)NC(=O)CN(C)C(=O)[C@H](Cc2ccc(C(=O)O)cc2)NC(=O)[C@H](Cc2ccc(C(N)=O)cc2)NC(=O)[C@](C)(CO)NC(=O)[C@H](Cc2c[nH]c3c(C#N)cccc23)NC(=O)[C@H](Cc2ccc(S(N)(=O)=O)cc2)NC(=O)[C@H](CC(N)=O)NC(=O)[C@@H](CCC(=O)O)N(C)C(=O)[C@H](Cc2c[nH]c3ncccc23)NC(=O)[C@@H]2CC[C@@H](O)CN2C(=O)[C@H](Cc2ccncc2)NC1=O [SEQ ID NO. 133] (cyclo([4Pal][Pip(5R-OH)][Trp(7-aza)][dNMeE]N[Phe(4-SO2NH2)][Trp(7-CN)][αMeS][Phe(4-CONH2)][Phe(4-COOH)][Sar][Trp(βS-Me,7-OMe)][X1][Nle])) is 2.9-fold lower in IC50: 4.1 nM for the first, 1.4 nM for the second. The second is the more potent here.
